From patent US12486302B2, “Somatostatin receptor antagonist compounds and methods of using the same” (CDRD VENTURES INC., priority 2016, dated 2025)
*1 amine or outer side, *2 acyl side, *3 side chain or, on linkers, in order; H or OH if unused. Where a SMILES comes first, the peptide text is derived from it. Bridges are numbered along the chain shown (N, C = ends). Side-chain parts run from the residue outwards. [ ]: non-standard residue; d: D form. The star is where a group is joined. ξ: configuration not given here. dPhe(4-CONH2) = NC(=O)c1ccc(C[C@@H](N)C(=O)O)cc1; NMePhe(4-Cl) = CN[C@@H](Cc1ccc(Cl)cc1)C(=O)O; dPhe(4-CN) = N#Cc1ccc(C[C@@H](N)C(=O)O)cc1; dPhe(4-NH2) = Nc1ccc(C[C@@H](N)C(=O)O)cc1; Phe(4-Cl) = N[C@@H](Cc1ccc(Cl)cc1)C(=O)O; ξPhe(4-Cl) = NC(Cc1ccc(Cl)cc1)C(=O)O; dNMeY = CN[C@H](Cc1ccc(O)cc1)C(=O)O; NH(4-MeO-phenyl) = COc1ccc(N*)cc1; Lys(Me) = CNCCCC[C@H](N)C(=O)O; Thr(3ξ) = CC(O)[C@H](N)C(=O)O; NMeK = CN[C@@H](CCCCN)C(=O)O; Tle = CC(C)(C)[C@H](N)C(=O)O; Nicotinoyl = O=C(c1cccnc1)*; ξY = NC(Cc1ccc(O)cc1)C(=O)O; NMeC = CN[C@@H](CS)C(=O)O; dNMeC = CN[C@H](CS)C(=O)O; dDap = NC[C@@H](N)C(=O)O; Dap = NC[C@H](N)C(=O)O; CO = O=C([*:1])[*:2]; NHPh = c1ccc(N*)cc1; βAla = NCCC(=O)O

Molecular target: somatostatin type 2 (SSTR2) receptors (Homo sapiens, UniProt P30874)
Sequence (P30874 whole entry): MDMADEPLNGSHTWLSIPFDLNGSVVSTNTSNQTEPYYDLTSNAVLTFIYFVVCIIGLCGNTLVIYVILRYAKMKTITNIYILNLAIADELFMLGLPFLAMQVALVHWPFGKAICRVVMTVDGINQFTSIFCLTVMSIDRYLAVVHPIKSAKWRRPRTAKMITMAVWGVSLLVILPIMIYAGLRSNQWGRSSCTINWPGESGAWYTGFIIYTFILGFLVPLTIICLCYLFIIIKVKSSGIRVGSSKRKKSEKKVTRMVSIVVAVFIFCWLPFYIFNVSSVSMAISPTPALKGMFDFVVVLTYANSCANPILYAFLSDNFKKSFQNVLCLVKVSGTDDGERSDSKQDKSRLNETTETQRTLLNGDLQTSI
Experiment: PathHunter β-Arrestin assay, antagonist mode, SSTR2
Type: cell-based
Conditions: agonist challenge at EC80
Method: The PathHunter® β-Arrestin assay monitors the activation of a GPCR in a homogenous, non-imaging assay format using a technology developed by DiscoveRx called Enzyme Fragment Complementation (EFC) with β-galactosidase (β-Gal) as the functional reporter. […] EA is fused to β-Arrestin and […] is fused to the GPCR of interest. When the GPCR is activated and β-Arrestin is recruited to the receptor, ED and EA complementation occurs, restoring β-Gal activity which is measured using chemiluminescent PathHunter® Detection Reagents. For antagonist determination, cells were pre-incubated with the compounds followed by agonist challenge at the EC80 concentration. Data was normalized to the maximal and minimal response observed in the presence of EC80 ligand and vehicle. Compound activity was analyzed using CBIS data analysis suite ChemInnovation, CA). Percentage inhibition was calculated using the following formula: % Inhibition=100%×(1−(mean signal of test sample-mean signal of vehicle control)/(mean signal of EC80 control-mean signal of vehicle control)). Percentage inhibition was calculated at 10 concentrations in steps on a Log 3 scale ranging from […] to 5e-5 μM. The results were plotted for IC50 calculation.

Row | SMILES | IC50 [µM]
1 | C[C@@H](O)[C@@H]1NC(=O)[C@H](CCCCN)NC(=O)[C@@H](Cc2ccc(C(N)=O)cc2)NC(=O)[C@H](Cc2ccc(O)cc2)NC(=O)[C@H](NC(=O)[C@@H](N)Cc2ccc(Cl)cc2)CSSC[C@@H](C(=O)NC(Cc2ccc(Cl)cc2)C(N)=O)NC1=O (stereo partly drawn) [Compound 42, H-Cpa-cyclo[DCys- Tyr-D-(4- carbamoyl)Phe- Lys-Thr-Cys]- 4-Cl-D-Phe-NH2] (H-[Phe(4-Cl)][dC]Y[dPhe(4-CONH2)]KTC[ξPhe(4-Cl)]-NH2; disulfide 2-7) | 0.00984
2 | CNCCCC[C@@H]1NC(=O)[C@@H](Cc2ccc(C(N)=O)cc2)NC(=O)[C@H](Cc2ccc(O)cc2)NC(=O)[C@H](NC(=O)[C@H](Cc2ccc(Cl)cc2)NC(=O)CCN)CSSC[C@@H](C(=O)N[C@H](Cc2ccc(O)cc2)C(N)=O)NC(=O)[C@H]([C@@H](C)O)NC1=O [Compound 49, H-β-Ala-Cpa-cyclo[D-Cys-Tyr-D-Phe(4-carbamoyl)-Lys (Nε-Me)-Thr-Cys]-D-Tyr-NH2] (H-[βAla][Phe(4-Cl)][dC]Y[dPhe(4-CONH2)][Lys(Me)]TC[dY]-NH2; disulfide 3-8) | 0.00286
3 | C[C@@H](O)[C@@H]1NC(=O)[C@H](CCCCN)NC(=O)[C@@H](Cc2ccc(C(N)=O)cc2)NC(=O)[C@H](Cc2ccc(O)cc2)NC(=O)[C@H](NC(=O)[C@@H](N)Cc2ccc(Cl)cc2)CSSC[C@@H](C(=O)N(C)[C@H](Cc2ccc(O)cc2)C(N)=O)NC1=O [Compound 79, H-Cpa-[DCys- Tyr-DPhe(4- carbamoyl)-Lys- Thr-Cys]- NMeDTyr-NH2] (H-[Phe(4-Cl)][dC]Y[dPhe(4-CONH2)]KTC[dNMeY]-NH2; disulfide 2-7) | 0.0287
4 | CNCCCC[C@@H]1NC(=O)[C@@H](Cc2ccc(C(N)=O)cc2)NC(=O)[C@H](Cc2ccc(O)cc2)NC(=O)[C@H](NC(=O)[C@@H](N)Cc2ccc(Cl)cc2)CSC(=O)NC[C@@H](C(=O)N[C@H](Cc2ccc(O)cc2)C(N)=O)NC(=O)[C@H](C(C)O)NC1=O (stereo partly drawn) [Compound 63, H-Cpa-cyclo [DCys-Tyr-DPhe (4-CONH2)- Lys(Me)-Thr-Dap]- DTyr-NH2] (H-[Phe(4-Cl)][dC]Y[dPhe(4-CONH2)][Lys(Me)][Thr(3ξ)][Dap][dY]-NH2; linker 2-7 via CO) | > 1
5 | C[C@@H](O)[C@@H]1NC(=O)[C@H](CCCCN)NC(=O)[C@@H](Cc2ccc(C#N)cc2)NC(=O)[C@H](Cc2ccc(O)cc2)NC(=O)[C@H](NC(=O)[C@@H](N)Cc2ccc(Cl)cc2)CSSC[C@@H](C(=O)N[C@H](Cc2ccc(O)cc2)C(N)=O)NC1=O [Compound 59, H-Cpa-[DCys- Tyr-DPhe(4-CN)- Lys-Thr-Cys]- DTyr-NH2] (H-[Phe(4-Cl)][dC]Y[dPhe(4-CN)]KTC[dY]-NH2; disulfide 2-7) | 0.0391
6 | COc1ccc(NC(=O)Nc2ccc(C[C@H]3NC(=O)[C@H](Cc4ccc(O)cc4)NC(=O)[C@H](NC(=O)[C@@H](N)Cc4ccc(Cl)cc4)CSSC[C@@H](C(=O)N[C@H](Cc4ccc(O)cc4)C(N)=O)NC(=O)[C@H]([C@@H](C)O)NC(=O)[C@H](CCCCN)NC3=O)cc2)cc1 [Compound 28, H-Cpa-cyclo[DCys- Tyr-D-(4-(4- methoxyphenyl) ureido) Phe-Lys-Thr-Cys]- DTyr-NH2] (H-[Phe(4-Cl)][dC]Y[dPhe(4-NH2)]([CO-NH(4-MeO-phenyl)])KTC[dY]-NH2; disulfide 2-7) | 0.104
7 | CNCCCC[C@@H]1NC(=O)[C@@H](Cc2ccc(C(N)=O)cc2)NC(=O)[C@H](Cc2ccc(Cl)cc2)NC(=O)[C@H](NC(=O)[C@@H](N)Cc2ccc(Cl)cc2)CSSC[C@@H](C(=O)NC(Cc2ccc(O)cc2)C(N)=O)NC(=O)[C@H]([C@@H](C)O)NC1=O (stereo partly drawn) [Compound 48, H-Cpa-cyclo[D-Cys-Cpa-D-Phe(4-carbamoyl)-Lys(N^ε-Me)-Thr-Cys]-D-Tyr-NH2] (H-[Phe(4-Cl)][dC][Phe(4-Cl)][dPhe(4-CONH2)][Lys(Me)]TC[ξY]-NH2; disulfide 2-7) | 0.00131
8 | CN[C@@H](Cc1ccc(Cl)cc1)C(=O)N[C@@H]1CSSC[C@@H](C(=O)N[C@H](Cc2ccc(O)cc2)C(N)=O)NC(=O)[C@H]([C@@H](C)O)NC(=O)[C@H](CCCCN)NC(=O)[C@@H](Cc2ccc(C(N)=O)cc2)NC(=O)[C@H](Cc2ccc(O)cc2)NC1=O [Compound 77, H—(N-Me)Cpa-cyclo[D-Cys-Tyr-D-Phe(4-carbamoyl)-Lys-Thr-Cys]-D-Tyr-NH2] (H-[NMePhe(4-Cl)][dC]Y[dPhe(4-CONH2)]KTC[dY]-NH2; disulfide 2-7) | 0.00225
9 | CNCCCC[C@@H]1NC(=O)[C@@H](Cc2ccc(C(N)=O)cc2)NC(=O)[C@H](Cc2ccc(Cl)cc2)NC(=O)[C@H](NC(=O)[C@@H](N)Cc2ccc(Cl)cc2)CSSC[C@@H](C(=O)NC(Cc2ccc(Cl)cc2)C(N)=O)NC(=O)[C@H]([C@@H](C)O)NC1=O (stereo partly drawn) [Compound 47, H-Cpa-cyclo[D-Cys-Cpa-D-Phe(4-carbamoyl)-Lys(N^ε-Me)-Thr-Cys]-D-Cpa-NH2] (H-[Phe(4-Cl)][dC][Phe(4-Cl)][dPhe(4-CONH2)][Lys(Me)]TC[ξPhe(4-Cl)]-NH2; disulfide 2-7) | 0.00151
10 | C[C@@H](O)[C@@H]1NC(=O)[C@H](CCCCN)NC(=O)[C@@H](Cc2ccc(C(N)=O)cc2)NC(=O)[C@H](Cc2ccc(Cl)cc2)NC(=O)[C@H](NC(=O)[C@@H](N)Cc2ccc(Cl)cc2)CSSC[C@@H](C(=O)NC(Cc2ccc(O)cc2)C(N)=O)NC1=O (stereo partly drawn) [Compound 36, H-Cpa-cyclo[DCys- Cpa-D-(4- carbamoyl)Phe-Lys- Thr-Cys]-DTyr-NH2] (H-[Phe(4-Cl)][dC][Phe(4-Cl)][dPhe(4-CONH2)]KTC[ξY]-NH2; disulfide 2-7) | 0.0287
11 | C[C@@H](O)[C@@H]1NC(=O)[C@H](CCCCN)NC(=O)[C@@H](Cc2ccc(C(N)=O)cc2)NC(=O)[C@H](Cc2ccc(O)cc2)NC(=O)[C@H](N(C)C(=O)[C@@H](N)Cc2ccc(Cl)cc2)CSSC[C@@H](C(=O)N[C@H](Cc2ccc(O)cc2)C(N)=O)NC1=O [Compound 78, H-Cpa- [NMeDCys- Tyr-DPhe (4-carbamoyl)- Lys-Thr-Cys]- DTyr-NH2] (H-[Phe(4-Cl)][dNMeC]Y[dPhe(4-CONH2)]KTC[dY]-NH2; disulfide 2-7) | 0.00679
12 | C[C@@H](O)[C@@H]1NC(=O)[C@H](CCCCN)N(C)C(=O)[C@@H](Cc2ccc(C(N)=O)cc2)NC(=O)[C@H](Cc2ccc(O)cc2)NC(=O)[C@H](NC(=O)[C@@H](N)Cc2ccc(Cl)cc2)CSSC[C@@H](C(=O)N[C@H](Cc2ccc(O)cc2)C(N)=O)NC1=O [Compound 72, H-Cpa-cyclo[DCys- Tyr-D-(4- carbamoyl)Phe- (N-alpha-Me)Lys- Thr-Cys]- DTyr-NH2] (H-[Phe(4-Cl)][dC]Y[dPhe(4-CONH2)][NMeK]TC[dY]-NH2; disulfide 2-7) | 0.00577
13 | C[C@@H](O)[C@@H]1NC(=O)[C@H](CCCCN)NC(=O)[C@@H](Cc2ccc(NC(=O)Nc3ccccc3)cc2)NC(=O)[C@H](Cc2ccc(O)cc2)NC(=O)[C@H](NC(=O)[C@@H](N)Cc2ccc(Cl)cc2)CNC(=O)C[C@@H](C(=O)N[C@H](Cc2ccc(O)cc2)C(N)=O)NC1=O [Compound 70] (H-[Phe(4-Cl)][dDap]Y[dPhe(4-NH2)]([CO-NHPh])KTD[dY]-NH2; lactam 2-7) | > 1
14 | COc1ccc(CC(NC(=O)[C@@H]2CSSC[C@@H](NC(=O)[C@@H](N)Cc3ccc(Cl)cc3)C(=O)N[C@@H](Cc3ccc(O)cc3)C(=O)N[C@H](Cc3ccc(C(N)=O)cc3)C(=O)N[C@@H](CCCCN)C(=O)N[C@@H]([C@@H](C)O)C(=O)N2)C(N)=O)cc1 (stereo partly drawn) [Compound 44, H-Cpa-cyclo[DCys- Tyr-D-(4- carbamoyl)Phe-Lys- Thr-Cys]-4-OMe-D- Phe-NH2] (H-[Phe(4-Cl)][dC]Y[dPhe(4-CONH2)]KTC[ξY](Me)-NH2; disulfide 2-7) | 0.0107
15 | CNCCCC[C@@H]1NC(=O)[C@@H](CCCCNC(=O)c2cccnc2)NC(=O)[C@H](Cc2ccc(O)cc2)NC(=O)[C@H](NC(=O)[C@@H](N)Cc2ccc(Cl)cc2)CSSC[C@@H](C(=O)NC(Cc2ccc(O)cc2)C(N)=O)NC(=O)[C@H]([C@@H](C)O)NC1=O (stereo partly drawn) [Compound 30, H-Cpa-cyclo[D-Cys-Tyr-D-Lys(N^ε-nicotinoyl)-Lys(N^ε-Me)-Thr-Cys]-D-Tyr-NH2] (H-[Phe(4-Cl)][dC]Y[dK](Nicotinoyl)[Lys(Me)]TC[ξY]-NH2; disulfide 2-7) | 0.177
16 | CC(C)(C)[C@@H]1NC(=O)[C@H](CCCCN)NC(=O)[C@@H](Cc2ccc(C(N)=O)cc2)NC(=O)[C@H](Cc2ccc(O)cc2)NC(=O)[C@H](NC(=O)[C@@H](N)Cc2ccc(Cl)cc2)CSSC[C@@H](C(=O)NC(Cc2ccc(O)cc2)C(N)=O)NC1=O (stereo partly drawn) [Compound 34, H-Cpa-cyclo[DCys- Tyr-D-4- (carbamoyl)Phe-Lys- tBu-Gly-Cys]-DTyr- NH2] (H-[Phe(4-Cl)][dC]Y[dPhe(4-CONH2)]K[Tle]C[ξY]-NH2; disulfide 2-7) | 0.0434
17 | C[C@@H](O)[C@@H]1NC(=O)[C@H](CCCCN)NC(=O)[C@@H](Cc2ccc(C(N)=O)cc2)NC(=O)[C@H](Cc2ccc(O)cc2)NC(=O)[C@H](NC(=O)[C@@H](N)Cc2ccc(Cl)cc2)CSSC[C@@H](C(=O)N[C@H](Cc2ccc(O)cc2)C(N)=O)N(C)C1=O [Compound 76, H-Cpa-[DCys- Tyr-DPhe (4-carbamoyl)- Lys-Thr-NMeCys]- DTyr-NH2] (H-[Phe(4-Cl)][dC]Y[dPhe(4-CONH2)]KT[NMeC][dY]-NH2; disulfide 2-7) | 0.4
18 | CC(O)[C@@H]1NC(=O)[C@H](CCCCN)NC(=O)[C@@H](Cc2ccc(C(N)=O)cc2)NC(=O)[C@H](Cc2ccc(O)cc2)NC(=O)[C@H](NC(=O)[C@@H](N)Cc2ccc(Cl)cc2)CNC(=O)SC[C@@H](C(=O)N[C@H](Cc2ccc(O)cc2)C(N)=O)NC1=O (stereo partly drawn) [Compound 60, H-Cpa-cyclo [DDap-Tyr- DPhe(4-CONH2)- Lys-Thr-Cys]- DTyr-NH2] | > 1
